{"source": "patent US11807625B2", "about": "“Capsid inhibitors for the prevention of HIV” (Gilead Sciences, Inc., priority 2019, dated 2023)", "assay": "PK of compound of Formula (Ia) after single subcutaneous dose of solution formulations in beagle dogs", "type": "in vivo", "details": "male, beagle, dog, plasma, sc, 12 mg/kg, mean ± SD", "experimental": "Formulations containing the compound of Formula (Ia), or a pharmaceutically acceptable salt thereof, were prepared as solutions and optionally administered subcutaneously or intramuscularly to rats, rabbits, and/or dogs.\n(§1) A solution of about 400 mg/mL of the compound of Formula (Ia) having 17.00 w/w % water, 36.40 w/w % PEG 300, 35.20 w/w % of a sodium salt of a compound of Formula (Ia), 5.00 w/w % ethanol, and 6.40 w/w % poloxamer 188 was prepared. The solution was administered subcutaneously to male beagle dogs at a dose level of about 12 mg/kg and male Wistar Han rats at a dose level of about 50 mg/kg. The pharmacokinetic profiles were determined, and the results for dogs are summarized in Table and Table, while the results for rats are summarized in Table and Table below.\nas §1, with “500” for “400”, “14.06” for “17.00”, “30.12” for “36.40”\nA solution of about 300 mg/mL of the compound of Formula (Ia) having 23.33 w/w % water, 48.99 w/w % PEG 300, 26.47 w/w % of a sodium salt of a compound of Formula (Ia), and 1.21 w/w % poloxamer 188 was prepared. The solution was administered subcutaneously to male beagle dogs at a dose level of about 6 mg/kg and male Wistar Han rats at a dose level of about 50 mg/kg. The pharmacokinetic profiles were determined, and the results for dogs are summarized in Table and Table, while the results for rats are summarized in Table and Table below.\nas §1, with “18.80” for “17.00”, “40.25” for “36.40”, “34.38” for “35.20”, “1.57” for “6.40”\nas §1, with “500” for “400”, “16.29” for “17.00”, “34.88” for “36.40”, “41.92” for “35.20”, “1.91” for “6.40”\nas §1, with “20.90” for “17.00”, “44.72” for “36.40”, “and 34.38” for “35.20”, “(Ia)” for “(Ia), 5.00 w/w % ethanol, and 6.40 w/w % poloxamer 188”\nA solution of about 400 mg/mL of the compound of Formula (Ia) having 19.90 w/w % water, 42.59 w/w % PEG 300, 34.38 w/w % of a sodium salt of a compound of Formula (Ia), and 3.13 w/w % poloxamer 188 was prepared. The solution was administered subcutaneously to male beagle dogs at a dose level of about 12 mg/kg and male Wistar Han rats at a dose level of about 50 mg/kg. […]", "key": {"[1]": {"details": "n = 3 dogs, SC 12 mg/kg, solution T, 400 mg/mL"}, "[2]": {"details": "n = 3 dogs, SC 12 mg/kg, solution U, 500 mg/mL"}}, "note": "Where two headings read alike, the source gives them in different places.", "data": [{"smiles": "CC(C)(C#Cc1ccc(-c2ccc(Cl)c3c(NS(C)(=O)=O)nn(CC(F)(F)F)c23)c([C@H](Cc2cc(F)cc(F)c2)NC(=O)Cn2nc(C(F)(F)F)c3c2C(F)(F)[C@@H]2C[C@H]32)n1)S(C)(=O)=O", "note": "[compound of Formula (Ia)]", "values": [{"measurement": "AUC(0-t)", "setting": "male beagle dogs, single SC 12 mg/kg, 400 mg/mL solution Z (3.13% poloxamer 188), n = 3, read-out: AUC0-3024 h", "result": "175 ± 32", "unit": "µM·h"}, {"measurement": "AUC(0-t)", "setting": "male beagle dogs, single SC 12 mg/kg, 400 mg/mL solution Z (3.13% poloxamer 188), n = 3, read-out: AUC0-3696 h", "result": "177 ± 31", "unit": "µM·h"}, {"measurement": "Cmax", "setting": "male beagle dogs, single SC 12 mg/kg, 500 mg/mL solution X (5.00% ethanol, 1.91% poloxamer 188), n = 3", "result": "125 ± 95", "unit": "nM"}, {"measurement": "AUC(0-t)", "setting": "male beagle dogs, single SC 12 mg/kg, 500 mg/mL solution X (5.00% ethanol, 1.91% poloxamer 188), n = 3, read-out: AUC0-24 h", "result": "0.663 ± 0.157", "unit": "µM·h"}, {"measurement": "AUC(0-t)", "setting": "male beagle dogs, single SC 12 mg/kg, 500 mg/mL solution X (5.00% ethanol, 1.91% poloxamer 188), n = 3, read-out: AUC0-168 h", "result": "6.01 ± 1.87", "unit": "µM·h"}, {"measurement": "AUC(0-t)", "setting": "male beagle dogs, single SC 12 mg/kg, 500 mg/mL solution X (5.00% ethanol, 1.91% poloxamer 188), n = 3, read-out: AUC0-672 h", "result": "46.1 ± 32.5", "unit": "µM·h"}, {"measurement": "AUC(0-t)", "setting": "male beagle dogs, single SC 12 mg/kg, 500 mg/mL solution X (5.00% ethanol, 1.91% poloxamer 188), n = 3, read-out: AUC0-1344 h", "result": "90.8 ± 60", "unit": "µM·h"}, {"measurement": "AUC(0-t)", "setting": "male beagle dogs, single SC 12 mg/kg, 500 mg/mL solution X (5.00% ethanol, 1.91% poloxamer 188), n = 3, read-out: AUC0-1680 h", "result": "106 ± 68", "unit": "µM·h"}, {"measurement": "AUC(0-t)", "setting": "male beagle dogs, single SC 12 mg/kg, 500 mg/mL solution X (5.00% ethanol, 1.91% poloxamer 188), n = 3, read-out: AUC0-2016 h", "result": "116 ± 75", "unit": "µM·h"}, {"measurement": "AUC(0-t)", "setting": "male beagle dogs, single SC 12 mg/kg, 500 mg/mL solution X (5.00% ethanol, 1.91% poloxamer 188), n = 3, read-out: AUC0-2253 h", "result": "124 ± 44", "unit": "µM·h"}, {"measurement": "AUC(0-t)", "setting": "male beagle dogs, single SC 12 mg/kg, 500 mg/mL solution X (5.00% ethanol, 1.91% poloxamer 188), n = 3, read-out: AUC0-2688 h", "result": "130 ± 83", "unit": "µM·h"}, {"measurement": "AUC(0-t)", "setting": "male beagle dogs, single SC 12 mg/kg, 500 mg/mL solution X (5.00% ethanol, 1.91% poloxamer 188), n = 3, read-out: AUC0-3024 h", "result": "135 ± 86", "unit": "µM·h"}, {"measurement": "AUC(0-t)", "setting": "male beagle dogs, single SC 12 mg/kg, 500 mg/mL solution X (5.00% ethanol, 1.91% poloxamer 188), n = 3, read-out: AUC0-4032 h", "result": "145 ± 90", "unit": "µM·h"}, {"measurement": "AUC(0-t)", "setting": "male beagle dogs, single SC 12 mg/kg, 500 mg/mL solution X (5.00% ethanol, 1.91% poloxamer 188), n = 3, read-out: AUC0-4368 h", "result": "148 ± 91", "unit": "µM·h"}, {"measurement": "AUC(0-inf)", "setting": "[1]", "result": "219 ± 54", "unit": "µM·h"}, {"measurement": "Cmax", "setting": "[1]", "result": "353 ± 148", "unit": "nM"}, {"measurement": "Tmax", "setting": "[1]", "result": "13 ± 8.54", "unit": "days"}, {"measurement": "half-life", "setting": "[1]", "result": 14.7, "unit": "days"}, {"measurement": "AUC(0-t)", "setting": "n = 3 dogs, SC 12 mg/kg, solution T, 400 mg/mL, read-out: AUC0-24 h", "result": "2.64 ± 0.5", "unit": "µM·h"}, {"measurement": "AUC(0-t)", "setting": "n = 3 dogs, SC 12 mg/kg, solution T, 400 mg/mL, read-out: AUC0-168 h", "result": "36 ± 26.2", "unit": "µM·h"}, {"measurement": "AUC(0-t)", "setting": "n = 3 dogs, SC 12 mg/kg, solution T, 400 mg/mL, read-out: AUC0-336 h", "result": "76.1 ± 46.7", "unit": "µM·h"}, {"measurement": "AUC(0-t)", "setting": "n = 3 dogs, SC 12 mg/kg, solution T, 400 mg/mL, read-out: AUC0-672 h", "result": "148 ± 51", "unit": "µM·h"}, {"measurement": "AUC(0-t)", "setting": "n = 3 dogs, SC 12 mg/kg, solution T, 400 mg/mL, read-out: AUC0-1334 h", "result": "197 ± 48", "unit": "µM·h"}, {"measurement": "AUC(0-t)", "setting": "n = 3 dogs, SC 12 mg/kg, solution T, 400 mg/mL, read-out: AUC0-2016 h", "result": "213 ± 53", "unit": "µM·h"}, {"measurement": "AUC(0-t)", "setting": "n = 3 dogs, SC 12 mg/kg, solution T, 400 mg/mL, read-out: AUC0-2352 h", "result": "216 ± 54", "unit": "µM·h"}, {"measurement": "AUC(0-inf)", "setting": "[2]", "result": "141 ± 14", "unit": "µM·h"}, {"measurement": "Cmax", "setting": "[2]", "result": "175 ± 29", "unit": "nM"}, {"measurement": "Tmax", "setting": "[2]", "result": "14.3 ± 11.5", "unit": "days"}, {"measurement": "half-life", "setting": "[2]", "result": 18.3, "unit": "days"}, {"measurement": "AUC(0-t)", "setting": "n = 3 dogs, SC 12 mg/kg, solution U, 500 mg/mL, read-out: AUC0-24 h", "result": "1.8 ± 0.85", "unit": "µM·h"}, {"measurement": "AUC(0-t)", "setting": "n = 3 dogs, SC 12 mg/kg, solution U, 500 mg/mL, read-out: AUC0-168 h", "result": "12.9 ± 5.1", "unit": "µM·h"}, {"measurement": "AUC(0-t)", "setting": "n = 3 dogs, SC 12 mg/kg, solution U, 500 mg/mL, read-out: AUC0-336 h", "result": "33.9 ± 14.2", "unit": "µM·h"}, {"measurement": "AUC(0-t)", "setting": "n = 3 dogs, SC 12 mg/kg, solution U, 500 mg/mL, read-out: AUC0-672 h", "result": "78.5 ± 11.4", "unit": "µM·h"}, {"measurement": "AUC(0-t)", "setting": "n = 3 dogs, SC 12 mg/kg, solution U, 500 mg/mL, read-out: AUC0-1334 h", "result": "118 ± 6", "unit": "µM·h"}, {"measurement": "AUC(0-t)", "setting": "n = 3 dogs, SC 12 mg/kg, solution U, 500 mg/mL, read-out: AUC0-2016 h", "result": "133 ± 11", "unit": "µM·h"}, {"measurement": "AUC(0-t)", "setting": "n = 3 dogs, SC 12 mg/kg, solution U, 500 mg/mL, read-out: AUC0-2352 h", "result": "136 ± 12", "unit": "µM·h"}, {"measurement": "Cmax", "setting": "n = 3 dogs, SC 12 mg/kg, solution W, 400 mg/mL", "result": "200 ± 90", "unit": "nM"}, {"measurement": "AUC(0-t)", "setting": "n = 3 dogs, SC 12 mg/kg, solution W, 400 mg/mL, read-out: AUC0-24 h", "result": "0.505 ± 0.194", "unit": "µM·h"}, {"measurement": "AUC(0-t)", "setting": "n = 3 dogs, SC 12 mg/kg, solution W, 400 mg/mL, read-out: AUC0-168 h", "result": "6.82 ± 3.38", "unit": "µM·h"}, {"measurement": "AUC(0-t)", "setting": "n = 3 dogs, SC 12 mg/kg, solution W, 400 mg/mL, read-out: AUC0-672 h", "result": "65.1 ± 43.1", "unit": "µM·h"}, {"measurement": "AUC(0-t)", "setting": "n = 3 dogs, SC 12 mg/kg, solution W, 400 mg/mL, read-out: AUC0-1344 h", "result": "123 ± 54", "unit": "µM·h"}, {"measurement": "AUC(0-t)", "setting": "n = 3 dogs, SC 12 mg/kg, solution W, 400 mg/mL, read-out: AUC0-1680 h", "result": "142 ± 50", "unit": "µM·h"}, {"measurement": "AUC(0-t)", "setting": "n = 3 dogs, SC 12 mg/kg, solution W, 400 mg/mL, read-out: AUC0-2016 h", "result": "154 ± 47", "unit": "µM·h"}, {"measurement": "AUC(0-t)", "setting": "n = 3 dogs, SC 12 mg/kg, solution W, 400 mg/mL, read-out: AUC0-2253 h", "result": "164 ± 44", "unit": "µM·h"}, {"measurement": "AUC(0-t)", "setting": "n = 3 dogs, SC 12 mg/kg, solution W, 400 mg/mL, read-out: AUC0-2688 h", "result": "170 ± 42", "unit": "µM·h"}, {"measurement": "AUC(0-t)", "setting": "n = 3 dogs, SC 12 mg/kg, solution W, 400 mg/mL, read-out: AUC0-3024 h", "result": "174 ± 41", "unit": "µM·h"}, {"measurement": "AUC(0-t)", "setting": "n = 3 dogs, SC 12 mg/kg, solution W, 400 mg/mL, read-out: AUC0-4032 h", "result": "181 ± 39", "unit": "µM·h"}, {"measurement": "AUC(0-t)", "setting": "n = 3 dogs, SC 12 mg/kg, solution W, 400 mg/mL, read-out: AUC0-4368 h", "result": "182 ± 38", "unit": "µM·h"}]}]}
